Values of other authors, collected in patent US20180177735A1, “Stable Pharmaceutical Composition Of Phytonadione And A Novel Process For Preparation Thereof” (Amneal Pharmaceuticals Company GmbH, priority 2016, published 2018).
Like-named read-outs stand apart in the source and are kept apart here.

Which solubility (in chloroform) does the source give for `CC1=C(C/C=C(\C)CCC[C@H](C)CCC[C@H](C)CCCC(C)C)C(=O)c2ccccc2C1=O` [Phytonadione] here?
Its solubility is “soluble”.

And the solubility (in ethanol)?
Its solubility is “slightly soluble (1 g of material requires 100 to 1000 ml of solute to dissolve)”.

And the solubility (in water)?
Its solubility is “insoluble”.
